According to ChEMBL document CHEMBL1201862, “PubChem BioAssay data set” (2004):
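Growth conditions: 96-well plates. Treatment: test compound, 48 hours, 5 concentrations. Analysis: linear interpolation between bracketing concentrations; unreached endpoints set to highest concentration. At the GI50, growth is halved.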 Activity calls are given as the source filed them. Rule as the data show it: active = GI50 up to about 1.1 µM and inactive = higher.

Experiments:
Assay in all cases: NCI-60 cell line screen, 48 h
IGROV-1 = tested on: IGROV-1
NCI-H460 = tested on: NCI-H460
HOP-62 = tested on: HOP-62
786-0 = tested on: 786-0
SNB-19 = tested on: SNB-19
OVCAR-3 = tested on: OVCAR-3
SK-MEL-2 = tested on: SK-MEL-2
HL-60 = tested on: HL-60
UO-31 = tested on: UO-31
SK-MEL-5 = tested on: SK-MEL-5
EKVX = tested on: EKVX
MOLT-4 = tested on: MOLT-4
RPMI-8226 = tested on: RPMI-8226
HCT-116 = tested on: HCT-116
DU-145 = tested on: DU-145
SF-268 = tested on: SF-268
SR = tested on: SR
CAKI-1 = tested on: CAKI-1
UACC-62 = tested on: UACC-62
NCI-H522 = tested on: NCI-H522
A498 = tested on: A498
PC-3 = tested on: PC-3
KM12 = tested on: KM12
A549 = tested on: A549
HT-29 = tested on: HT-29
CCRF-CEM = tested on: CCRF-CEM
SN12C = tested on: SN12C
U-251 = tested on: U-251
SW-620 = tested on: SW-620
MDA-MB-231 = tested on: MDA-MB-231
OVCAR-4 = tested on: OVCAR-4
BT-549 = tested on: BT-549
OVCAR-5 = tested on: OVCAR-5
SF-539 = tested on: SF-539
NCI-H226 = tested on: NCI-H226
K562 = tested on: K562
HCT-15 = tested on: HCT-15
MCF7 = tested on: MCF7
OVCAR-8 = tested on: OVCAR-8
UACC-257 = tested on: UACC-257
HOP-92 = tested on: HOP-92
SF-295 = tested on: SF-295
ACHN = tested on: ACHN
MDA-MB-435 = tested on: MDA-MB-435
T47D = tested on: T47D
HCC 2998 = tested on: HCC 2998
SNB-75 = tested on: SNB-75
SK-OV-3 = tested on: SK-OV-3
MDA-N = tested on: MDA-N
M14 = tested on: M14
Malme-3M = tested on: Malme-3M
LOX IMVI = tested on: LOX IMVI
RXF 393 = tested on: RXF 393
SK-MEL-28 = tested on: SK-MEL-28
NCI/ADR-RES = tested on: NCI/ADR-RES
Hs-578T = tested on: Hs-578T
NCI-H23 = tested on: NCI-H23
TK-10 = tested on: TK-10
COLO 205 = tested on: COLO 205

With `COc1ccc2cc(C(=O)NCCCNC(=O)c3ccc4cc(OC)ccc4c3)ccc2c1` the GI50 (IGROV-1) was 39.4 µM (inactive), the GI50 (NCI-H460) was > 64.9 µM (inactive) and the GI50 (HOP-62) was 14.7 µM (inactive). The GI50 (786-0) was 19.6 µM (inactive), the GI50 (SNB-19) was 17.2 µM (inactive) and the GI50 (OVCAR-3) was > 100 µM (inactive). The GI50 (SK-MEL-2) was > 75.3 µM (inactive), the GI50 (HL-60) was > 100 µM (inactive) and the GI50 (UO-31) was > 75.7 µM (inactive). The GI50 (SK-MEL-5) was > 100 µM (inactive), the GI50 (EKVX) was 49.8 µM (inactive) and the GI50 (MOLT-4) was > 100 µM (inactive). The GI50 (RPMI-8226) was > 100 µM (inactive), the GI50 (HCT-116) was > 86.7 µM (inactive) and the GI50 (DU-145) was > 100 µM (inactive). The GI50 (SF-268) was 23.9 µM (inactive), the GI50 (SR) was > 100 µM (inactive) and the GI50 (CAKI-1) was > 82.4 µM (inactive). The GI50 (UACC-62) was > 100 µM (inactive), the GI50 (NCI-H522) was > 100 µM (inactive) and the GI50 (A498) was 44.8 µM (inactive). The GI50 (PC-3) was > 100 µM (inactive), the GI50 (KM12) was > 100 µM (inactive) and the GI50 (A549) was > 100 µM (inactive). For the same compound, the GI50 (HT-29) was > 100 µM (inactive), the GI50 (CCRF-CEM) was > 100 µM (inactive) and the GI50 (SN12C) was > 49.9 µM (inactive). For the same compound, the GI50 (U-251) was 21.1 µM (inactive), the GI50 (SW-620) was > 100 µM (inactive) and the GI50 (MDA-MB-231) was 21.1 µM (inactive). For the same compound, the GI50 (OVCAR-4) was 61 µM (inactive), the GI50 (BT-549) was > 64.7 µM (inactive) and the GI50 (OVCAR-5) was > 100 µM (inactive). For the same compound, the GI50 (SF-539) was 3.94 µM (inactive), the GI50 (NCI-H226) was 49.4 µM (inactive) and the GI50 (K562) was > 100 µM (inactive). The GI50 (HCT-15) was over 100 µM, the GI50 (MCF7) was > 100 µM (inactive) and the GI50 (OVCAR-8) was 22.6 µM (inactive). The GI50 (UACC-257) was > 96.2 µM (inactive), the GI50 (HOP-92) was 14.7 µM (inactive) and the GI50 (SF-295) was 22.4 µM (inactive). The GI50 (ACHN) was 33.7 µM (inactive), the GI50 (MDA-MB-435) was > 100 µM (inactive) and the GI50 (T47D) was > 75.7 µM (inactive). For the same compound, the GI50 (HCC 2998) was > 100 µM (inactive), the GI50 (SNB-75) was 17.8 µM (inactive) and the GI50 (SK-OV-3) was 31.5 µM (inactive). The GI50 (MDA-N) was > 100 µM (inactive), the GI50 (M14) was > 100 µM (inactive) and the GI50 (Malme-3M) was > 100 µM (inactive). The GI50 (LOX IMVI) was > 100 µM (inactive), the GI50 (RXF 393) was 15.8 µM (inactive) and the GI50 (SK-MEL-28) was > 100 µM (inactive). For the same compound, the GI50 (NCI/ADR-RES) was > 61.5 µM (inactive), the GI50 (Hs-578T) was 34.2 µM (inactive) and the GI50 (NCI-H23) was > 100 µM (inactive). The GI50 (TK-10) was 45.4 µM (inactive) and the GI50 (COLO 205) was > 100 µM (inactive).

For `N#Cc1[nH]c(=O)n(-c2cccc3ccccc23)c1N`, the GI50 (IGROV-1) was > 10 µM (inactive), the GI50 (NCI-H460) was > 10 µM (inactive) and the GI50 (HOP-62) was > 10 µM (inactive). For the same compound, the GI50 (786-0) was > 10 µM (inactive), the GI50 (SNB-19) was > 10 µM (inactive) and the GI50 (OVCAR-3) was > 10 µM (inactive). For the same compound, the GI50 (SK-MEL-2) was > 10 µM (inactive), the GI50 (HL-60) was > 10 µM (inactive) and the GI50 (SK-MEL-5) was > 10 µM (inactive). The GI50 (EKVX) was > 10 µM (inactive), the GI50 (MOLT-4) was > 10 µM (inactive) and the GI50 (RPMI-8226) was 0.001 µM (active). The GI50 (HCT-116) was > 10 µM (inactive), the GI50 (DU-145) was > 10 µM (inactive) and the GI50 (SF-268) was > 10 µM (inactive). For the same compound, the GI50 (SR) was > 10 µM (inactive), the GI50 (CAKI-1) was > 10 µM (inactive) and the GI50 (UACC-62) was > 10 µM (inactive). The GI50 (NCI-H522) was > 10 µM (inactive), the GI50 (A498) was > 10 µM (inactive) and the GI50 (PC-3) was > 10 µM (inactive). For the same compound, the GI50 (KM12) was > 10 µM (inactive), the GI50 (A549) was > 10 µM (inactive) and the GI50 (HT-29) was > 10 µM (inactive). For the same compound, the GI50 (CCRF-CEM) was > 10 µM (inactive), the GI50 (SN12C) was > 10 µM (inactive) and the GI50 (U-251) was > 10 µM (inactive). The GI50 (SW-620) was > 10 µM (inactive), the GI50 (MDA-MB-231) was > 10 µM (inactive) and the GI50 (OVCAR-4) was > 10 µM (inactive). For the same compound, the GI50 (BT-549) was 4.61 µM (inactive), the GI50 (OVCAR-5) was > 10 µM (inactive) and the GI50 (SF-539) was > 10 µM (inactive). The GI50 (K562) was > 10 µM (inactive), the GI50 (HCT-15) was over 10 µM and the GI50 (MCF7) was > 10 µM (inactive). For the same compound, the GI50 (OVCAR-8) was > 10 µM (inactive), the GI50 (UACC-257) was > 10 µM (inactive) and the GI50 (SF-295) was > 10 µM (inactive). For the same compound, the GI50 (ACHN) was > 10 µM (inactive), the GI50 (MDA-MB-435) was > 10 µM (inactive) and the GI50 (T47D) was > 10 µM (inactive). For the same compound, the GI50 (HCC 2998) was > 10 µM (inactive), the GI50 (SK-OV-3) was > 10 µM (inactive) and the GI50 (MDA-N) was > 10 µM (inactive). The GI50 (M14) was > 10 µM (inactive), the GI50 (Malme-3M) was > 10 µM (inactive) and the GI50 (LOX IMVI) was > 10 µM (inactive). The GI50 (RXF 393) was > 10 µM (inactive), the GI50 (SK-MEL-28) was > 10 µM (inactive) and the GI50 (NCI/ADR-RES) was > 10 µM (inactive). For the same compound, the GI50 (Hs-578T) was > 10 µM (inactive), the GI50 (NCI-H23) was > 10 µM (inactive) and the GI50 (TK-10) was > 10 µM (inactive). The GI50 (COLO 205) was > 10 µM (inactive).
